Reference: US12404283B2, “c-MYC mRNA translation modulators and uses thereof in the treatment of cancer” (Anima Biotech Inc., priority 2022, dated 2025)

Tested on: c-Myc
Experiment: c-Myc immunofluorescence assay
Type: cell-based, human
Details: A549 cells, 24 hours treatment, anti-c-Myc immunofluorescence
Summary of the method: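 High-content imaging (20×) of PFA-fixed A549 cells immunostained for c-Myc with DAPI nuclei, after 24 h compound treatment at increasing concentrations. Per-cell c-Myc signal in identified cell regions was plotted against dose and fitted by logistic regression to give EC50.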

SMILES | Myc Efficacy (−LogEC50)
CCN(CC)CCCNC(=O)c1ccc2c(c1)sc1nc(-c3ccc(C(=O)NC4CCN(C)C4)cc3)cn12 (stereo not shown) [compound 286, N-(3-(diethylamino)propyl)-2-(4-((1-methylpyrrolidin-3-yl)carbamoyl)phenyl)benzo [d]imidazo[2,1-b]thiazole-7-carboxamide] | ++ (++ ≥5 and <6)
CCN(CC)CCCNC(=O)c1ccc2c(c1)sc1nc(-c3ccc(C(=O)NC4CCNCC4)cc3)cn12 [compound 287, N-(3-(diethylamino)propyl)-2-(4-(piperidin-4-ylcarbamoyl)phenyl)benzo [d]imidazo[2,1-b]thiazole-7-carboxamide] | + (+ >3 and <5)
CCN(CC)CCCNC(=O)c1ccc2c(c1)sc1nc(-c3ccc(CNC)cc3)cn12 [compound 288, N-(3-(diethylamino)propyl)-2-(4-((methylamino)methyl)phenyl) benzo[d]imidazo[2,1-b]thiazole-7-carboxamide] | +++ (+++ ≥6)
CCN(CC)CCCNC(=O)c1ccc2c(c1)sc1nc(-c3ccc(CN4CCCC4)cc3)cn12 [compound 289, N-(3-(diethylamino)propyl)-2-(4-(pyrrolidin-1-ylmethyl)phenyl)benzo[d] imidazo[2,1-b]thiazole-7-carboxamide] | +++ (+++ ≥6)
NCc1ccc(-c2cn3c(n2)sc2cc(C(=O)NCCCN4CCCCC4)ccc23)cc1 [compound 290, 2-(4-(aminomethyl)phenyl)-N-(3-(piperidin-1-yl)propyl)benzo[d]imidazo [2,1-b]thiazole-7-carboxamide] | +++ (+++ ≥6)
CCN(CC)CCCNC(=O)c1ccc2c(c1)sc1nc(-c3ccc(C(=O)NC)c(F)c3)cn12 [compound 291] | + (+ >3 and <5)
CCN(CC)CCCNC(=O)c1ccc2c(c1)sc1nc(-c3ccc(CNCCOC)cc3)cn12 [compound 292, N-(3-(diethylamino)propyl)-2-(4-(((2-methoxyethyl)amino)methyl)phenyl)benzo[d]imidazo[2,1-b]thiazole-7-carboxamide] | +++ (+++ ≥6)
CCN(CC)CCCNC(=O)c1ccc2c(c1)sc1nc(-c3ccc([C@@H](NC)C(F)(F)F)cc3)cn12 [compound 293, (R)-N-(3-(diethylamino)propyl)-2-(4-(2,2,2-trifluoro-1-(methylamino)ethyl)phenyl) benzo[d]imidazo[2,1-b]thiazole-7-carboxamide] | ++ (++ ≥5 and <6)
CCN(CC)CCCNC(=O)c1ccc2c(c1)sc1nc(-c3ccc([C@H](NC)C(F)(F)F)cc3)cn12 [compound 294, (S)-N-(3-(diethylamino)propyl)-2-(4-(2,2,2-trifluoro-1-(methylamino)ethyl)phenyl) benzo[d]imidazo[2,1-b]thiazole-7-carboxamide] | ++ (++ ≥5 and <6)
CCN(CC)CCCNC(=O)c1ccc2c(c1)sc1nc(-c3ccc(C(=O)NCCNC)cc3)cn12 [compound 295, N-(3-(diethylamino)propyl)-2-(4-((2-(methylamino)ethyl)carbamoyl)phenyl)benzo[d] imidazo[2,1-b]thiazole-7-carboxamide] | ++ (++ ≥5 and <6)
CCN(CC)CCCNC(=O)c1ccc2c(c1)sc1nc(-c3ccc(C(=O)NC4CCNC4)cc3)cn12 (stereo not shown) [compound 296, N-(3-(diethylamino)propyl)-2-(4-(pyrrolidin-3-ylcarbamoyl)phenyl)benzo[d] imidazo[2,1-b]thiazole-7-carboxamide] | + (+ >3 and <5)
CCN(CC)CCCNC(=O)c1ccc2c(c1)sc1nc(-c3ccc(C(=O)NCCN)cc3)cn12 [compound 297, 2-(4-((2-aminoethyl)carbamoyl)phenyl)-N-(3-(diethylamino)propyl)benzo [d]imidazo[2,1-b]thiazole-7-carboxamide] | + (+ >3 and <5)
CCN(CC)CCCNC(=O)c1ccc2c(c1)sc1nc(-c3ccc(CN)cc3F)cn12 [compound 298, 2-(4-(aminomethyl)-2-fluorophenyl)-N-(3-(diethylamino)propyl)benzo [d]imidazo[2,1-b]thiazole-7-carboxamide] | +++ (+++ ≥6)
CCN(CC)CCCNC(=O)c1ccc2c(c1)sc1nc(-c3cccc(CN)c3)cn12 [compound 299, 2-(3-(aminomethyl)phenyl)-N-(3-(diethylamino)propyl) benzo[d]imidazo[2,1-b] thiazole-7-carboxamide] | ++ (++ ≥5 and <6)
CCN(CC)CCCNC(=O)c1ccc2c(c1)sc1nc(-c3ccc(CNC4CC4)cc3)cn12 [compound 300, 2-(4-((cyclopropylamino)methyl)phenyl)-N-(3-(diethylamino)propyl)benzo [d]imidazo[2,1-b]thiazole-7-carboxamide] | +++ (+++ ≥6)
CNC(=O)c1ccc(-c2cn3c(n2)sc2cc(C(=O)N[C@@H]4CCCN(C)C4)ccc23)cc1 [compound 301, (R)-2-(4-(methylcarbamoyl)phenyl)-N-(1-methylpiperidin-3-yl)benzo[d]imidazo[2,1-b]thiazole-7-carboxamide] | + (+ >3 and <5)
CNC(=O)c1ccc(-c2cn3c(n2)sc2cc(C(=O)NCC[C@@H]4CCCN4C)ccc23)cc1 [compound 303, (S)-2-(4-(methylcarbamoyl)phenyl)-N-(2-(1-methylpyrrolidin-2-yl)ethyl)benzo[d]imidazo [2,1-b]thiazole-7-carboxamide] | + (+ >3 and <5)
O=C(NCCCN1CCCCC1)c1ccc2c(c1)sc1nc(-c3ccncc3)cn12 [compound 306, N-(3-(piperidin-1-yl)propyl)-2-(pyridin-4-yl)benzo[d]imidazo[2,1-b]thiazole-7-carboxamide] | ++ (++ ≥5 and <6)
CCN(CC)CCCNC(=O)c1ccc2c(c1)sc1nc(-c3ccc(N4CCOCC4)cc3)cn12 [compound 307, N-(3-(diethylamino)propyl)-2-(4-morpholinophenyl)benzo[d] imidazo[2,1-b]thiazole-7-carboxamide] | ++ (++ ≥5 and <6)
CCN(CC)CCCNC(=O)c1ccc2c(c1)sc1nc(-c3cccc(C4COC4)c3)cn12 [compound 308, N-(3-(diethylamino)propyl)-2-(3-(oxetan-3-yl)phenyl)benzo[d]imidazo [2,1-b]thiazole-7-carboxamide] | + (+ >3 and <5)
CNC(=O)c1ccc(-c2cn3c(n2)sc2cc(C(=O)NCCCN4CCC(F)CC4)ccc23)cc1 [compound 309, N-(3-(4-fluoropiperidin-1-yl)propyl)-2-(4-(methylcarbamoyl)phenyl) benzo[d]imidazo[2,1-b]thiazole-7-carboxamide] | ++ (++ ≥5 and <6)
CNC(=O)c1ccc(-c2cn3c(n2)sc2cc(C(=O)NCCCN4CCCC4)ccc23)cc1 [compound 310, 2-(4-(methylcarbamoyl)phenyl)-N-(3-(pyrrolidin-1-yl)propyl)benzo[d]imidazo [2,1-b]thiazole-7-carboxamide] | + (+ >3 and <5)
